Read-outs that look alike come from different tables or passages of the source.
Assays:
[1] = test system: mice; assay: Single dose toxicity test by administration to mice; type: in vivo; conditions: intraperitoneal 250, 500 and 1,000 mg/kg; 14 days
Experimental: A single dose toxicity test by intraperitoneal administration of the carboxylic acid type of the compounds of the present invention to mice was carried out. Male mice of ddY strain of four weeks age were made into groups of five mice so as to make mean body weight in each group nearly the same. Carboxylic acid type A as a test substance was intraperitoneally administered at the doses of 250 mg/kg, 500 mg/kg and 1,000 mg/kg.

[2] = test system: mice; assay: Test for analgesic effect (4): acetic acid writhing test; type: in vivo; conditions: oral single dose; 0.7% acetic acid i.p. 25 minutes after; writhing numbers during 10 minutes
Experimental: The compounds of the present invention or the carboxylic acid type thereof were orally administered to mice and a test for an analgesic effect was carried out by means of an acetic acid writhing test. As to the test animals, male mice of ddY strain of four weeks age were subjected to a preliminary breeding and they were used where one group comprised ten mice. Each of the compound of the present invention or the carboxylic acid type thereof as a test substance was orally administered in a single dose while, to a control group, distilled water (water for injection) was administered similarly. After 25 minutes from the administration of the test substance, a 0.7% acetic acid/physiological saline was intraperitoneally administered at the dose of 10 mL/kg. From 5 minutes thereafter, writhing numbers during 10 minutes were counted and a suppressive rate for each mouse was calculated according to the following formula. Suppressive Rate (%)=[(Mean writhing numbers of the control group)−(Writhing numbers of each mouse)]÷[Mean writhing numbers of the control group]×100

[3] = test system: rats; assay: Hyperalgesia in osteoarthritis model induced by monoiodoacetic acid into joints of rats; type: in vivo; conditions: oral administration of 1 mg/kg
[4] = test system: SART stressed mouse; assay: Test for analgesic effect (1): SART stressed mouse, modified Randall-Selitto tail pressure method; type: in vivo, mice
[5] = test system: Chung model rat; assay: Test for analgesic effect (2)/(3): Chung model rat, mechanical allodynia by von Frey filament; type: in vivo, rats
Experimental: A test for analgesic effect was conducted using a Chung model rat which is a neuropathic pain model. As to the test animal, male rats of Wistar strain of nine weeks age were used and model rats were prepared in accordance with the method of Kim and Chung (Pain, vol. 50, pages 355 to 363, 1992). Thus, under anesthetization with pentobarbital (40 mg/kg, intraperitoneal administration), rat L5 spinal nerve was exposed and L5 dorsal root ganglion periphery side was strongly ligated using 5-0 silk yarn. The animals were placed in a transparent acrylate cage whose bottom was made of wire net, a 50% reaction threshold value was calculated by an up-down method using a von Frey filament (manufactured by North Coast Medical Inc.) according to the methods of Chaplan, et al. (J. Neurosci. Method, vol. 53, pages 55 to 63, 1994) and by Lee, et al. (J. Neurophysiol., vol. 81, pages 2226 to 2233, 1999) and measurement of allodynia was conducted. Before injury of spinal nerve, the 50% reaction threshold value was measured twice and the animals where the threshold value was outside the standard were excluded from the operation for spinal nerve injury. […] Those test animals were made into groups of seven animals so that the mean value of 50% reaction threshold after 28 days from the nerve injury as an index became nearly the same in each group.
The carboxylic acid type of the compounds of the present invention as a test substance was intraperitoneally administered in a single dose while, a 0.5% CMC-Na/physiological saline solution was administered similarly to a nerve injury control group. After 30 minutes from the administration of the test substance, allodynia was measured to calculate a 50% reaction threshold value. With regard to a significance test, Paired t-test was conducted for comparison between before and after the nerve injury and Dunnett's multiple comparison test was used for comparison among multiple groups of the nerve injury control group and the test substance administration group.
According to the same manner as in the above Test for Analgesic Effect (2), each of Compound 12 of the present invention (3 mg/kg, 10 mg/kg) and Carboxylic acid substance A of the compound of the present invention (10 mg/kg) was orally administered in a single dose as the test substance to Chung model rats. Allodynia after 0, 15, 30, 60 and 120 minutes from the administration was measured for each of the test substance administration group and the nerve injury control group whereupon a 50% reaction threshold value was calculated.

[6] = set-up: species or system cynomolgus monkeys; conditions: cynomolgus monkey, in vivo, 30 mg/kg
Experimental: Each of the compound of the present invention and Carboxylic acid type A thereof dissolved or suspended in a hydrochloric acid solution was diluted with water. […] At the stages of before the administration and of 0.25, 0.5, 1, 2, 4, 8 and 24 hour(s) after the administration, the blood was collected from femoral vein using a syringe to which heparin was added followed by subjecting to centrifugation to collect the plasma. Collection of the blood was conducted for three times in total where one collection was done with each blank term of six days for each test substance. Concentration of Carboxylic acid type A in each of the collected plasma samples was quantified by an LC-MS and Cmax (maximum drug concentration in plasma) and AUC (area under blood concentration time curve; 0 to ∞ hour(s)) of the compound of the present invention and Carboxylic acid type A thereof were calculated.

[7] = test system: rats; assay: Formalin pain test for rats, second phase; type: in vivo; conditions: oral administration of 100 mg/kg
[8] = Test of kinetics in blood of rats; type: in vivo; conditions: rat, in vivo, po, 10 mg/kg
Experimental: Each of the compound of the present invention and the carboxylic acid type A thereof was dissolved in DMSO, diluted with water. A sample solution (1% DMSO solution) made into 2 mg/mL was orally administered in a single dose to the fasted Wistar strain SPF male rats of seven weeks age using a stomach tube (10 mg/5 mL/kg). At the stages of 0.25, 0.5, 1, 2, 4 and 8 hour(s) after the administration, about 150 μL of the blood was collected from tail vein using a capillary to which heparin was added and said capillary was centrifuged to collect the plasma. Protein was removed from the plasma sample and the supernatant liquid was diluted to prepare each sample solution for the measurement.

[9] = intraperitoneally administered 100 μg/kg to mice

## C=CC(=O)N[C@@H](Cc1cncn1C)C(=O)O [Carboxylic acid type A, N^α-acryloyl-N^π-methyl-L-histidine]
[1]
  death: no death case
[2]
  Suppressive Rate (%): 33.1%
[3]
  analgesic effect on hyperalgesia: significant analgesic effect
[4]; 25 ng per mouse into the lateral ventricle, 30 minutes after administration, pain threshold of test group divided by that of SART control group, 1.0 = no effect
  Analgesic coefficient: 1.33
[4]; [9]
  Analgesic coefficient: 1.24
  pain threshold value: 97.8 g
[4]; oral administration in mice, dose of 3 and 10 mg/kg, peak after 30 minutes
  analgesic action: significant analgesic action
[4]; oral administration in mice, peak after 30 minutes
  ED50 value determined from the improving rate at peak of action: 2.7 mg/kg
[5]; intraperitoneal single dose
  threshold as compared with the nerve injury control group: significant increase in the threshold
[5]; intraperitoneally 100 μg/kg single dose, 30 minutes after administration
  50% reaction threshold value: 9.60 g
[5]; oral administration, dose of 10 mg/kg, peak after 30 minutes
  anti-allodynia action to mechanical allodynia: significant anti-allodynia action
[5]; oral administration, peak after 30 minutes
  ED50 value determined from the improving rate at the peak of the action: 2.4 mg/kg
[5]; oral single dose (Compound 12: 3 and 10 mg/kg; Carboxylic acid type A: 10 mg/kg), 15, 30 and 60 minutes after administration, FIG. 1
  anti-allodynia action as compared with the nerve injury control group: significant anti-allodynia action
[6]
  AUC: 2356.9 ng·h/mL
  Cmax: 410.8 ng/mL
[7]
  analgesic action against pain reaction in the second phase: significant analgesic action
[8]
  AUC: 1339.4 ng·h/mL
  Cmax: 372.5 ng/mL

Reference: patent publication US8324261B2, “Histidine derivatives” (Nippon Zoki Pharmaceutical Co., Ltd., priority 2007, dated 2012)
